Test results reported in ChEMBL document CHEMBL1122784, “Antitumor imidazotetrazines. 1. Synthesis and chemistry of 8-carbamoyl-3-(2-chloroethyl)imidazo[5,1-d]-1,2,3,5-tetrazin-4(3 H)-one , a novel broad-spectrum antitumor agent” (J Med Chem, 1984).

Experiments:
Mus musculus [1] = assay: Compound was evaluated for %T/C in P388 leukemia implanted BDF1 mice on day 0 after ip administration of 25 mg/kg/day on day 1-5; format: functional; conditions: route intraperitoneal
Mus musculus [2] = assay: Compound was tested for mortality in L1210 leukemia implanted BDF1 mice on day 0 after ip administration of 10 mg/kg/day on day 1 out of 5 mice; format: functional; conditions: route intraperitoneal
Mus musculus [3] = assay: Compound was tested for mortality in L1210 leukemia implanted BDF1 mice on day 0 after ip administration of 5 mg/kg/day on day 1 out of 5 mice; format: functional; conditions: route intraperitoneal
Mus musculus [4] = assay: Compound was tested for mortality in P388 leukemia implanted BDF1 mice on day 0 after ip administration of 10 mg/kg/day on day 1-5 out of 5 mice; format: functional; conditions: route intraperitoneal
Mus musculus [5] = assay: Compound was tested for mortality in P388 leukemia implanted BDF1 mice on day 0 after ip administration of 40 mg/kg/day on day 1 out of 5 mice; format: functional; conditions: route intraperitoneal
Mus musculus [6] = assay: Compound was tested for mortality in L1210 leukemia implanted BDF1 mice on day 0 after ip administration of 50 mg/kg/day on day 1-9 out of 6 mice; format: functional; conditions: route intraperitoneal
Mus musculus [7] = assay: Compound was tested for mortality in L1210 leukemia implanted BDF1 mice on day 0 after ip administration of 80 mg/kg/day on day 1 out of 5 mice; format: functional; conditions: route intraperitoneal
Mus musculus [8] = assay: Compound was tested for mortality in P388 leukemia implanted BDF1 mice on day 0 after ip administration of 5 mg/kg/day on day 1-5 out of 5 mice; format: functional; conditions: route intraperitoneal
Mus musculus [9] = assay: Compound was evaluated for %T/C in L1210 leukemia implanted BDF1 mice on day 0 after ip administration of 80 mg/kg/day on day 1; format: functional; conditions: route intraperitoneal
Mus musculus [10] = assay: (§1) Compound was evaluated for number of survivors in L1210 leukemia implanted BDF1 mice on day 0 after ip administration of 20 mg/kg/day on day 60 out of 5 mice; format: functional; conditions: route intraperitoneal
Mus musculus [11] = assay: Compound was evaluated for number of survivors in L1210 leukemia implanted BDF1 mice on day 0 after ip administration of 7.5 mg/kg/day on day 60 out of 5 mice; format: functional; conditions: route intraperitoneal
Mus musculus [12] = assay: Compound was evaluated for number of survivors in P388 leukemia implanted BDF1 mice on day 0 after ip administration of 2.5 mg/kg/day on day 60 out of 5 mice; format: functional; conditions: route intraperitoneal
Mus musculus [13] = assay: Compound was evaluated for number of survivors in L1210 leukemia implanted BDF1 mice on day 0 after ip administration of 25 mg/kg/day on day 60 out of 6 mice; format: functional; conditions: route intraperitoneal
Mus musculus [14] = assay: Compound was evaluated for number of survivors in P388 leukemia implanted BDF1 mice on day 0 after ip administration of 6.25 mg/kg/day on day 60 out of 6 mice; format: functional; conditions: route intraperitoneal
[15] = Half-life period in 95% ethanol in diffuse laboratory light at 28 degrees celsius.; format: ADME
Mus musculus [16] = assay: Compound was tested for mortality in P388 leukemia implanted BDF1 mice on day 0 after ip administration of 12.5 mg/kg/day on day 1-5 out of 6 mice; format: functional; conditions: route intraperitoneal
Mus musculus [17] = assay: Compound was evaluated for %T/C in L1210 leukemia implanted BDF1 mice on day 0 after ip administration of 10 mg/kg/day on day 1; format: functional; conditions: route intraperitoneal
Mus musculus [18] = assay: Compound was evaluated for number of survivors in P388 leukemia implanted BDF1 mice on day 0 after ip administration of 7.5 mg/kg/day on day 60 out of 5 mice; format: functional; conditions: route intraperitoneal
Mus musculus [19] = assay: Compound was evaluated for %T/C in P388 leukemia implanted BDF1 mice on day 0 after ip administration of 20 mg/kg/day on day 1-5; format: functional; conditions: route intraperitoneal
Mus musculus [20] = assay: Compound was tested for mortality in L1210 leukemia implanted BDF1 mice on day 0 after ip administration of 5 mg/kg/day on day 1-5 out of 5 mice; format: functional; conditions: route intraperitoneal
Mus musculus [21] = assay: Compound was evaluated for number of survivors in P388 leukemia implanted BDF1 mice on day 0 after ip administration of 25 mg/kg/day on day 60 out of 6 mice; format: functional; conditions: route intraperitoneal
Mus musculus [22] = assay: Compound was tested for mortality in P388 leukemia implanted BDF1 mice on day 0 after ip administration of 5 mg/kg/day on day 1 out of 5 mice; format: functional; conditions: route intraperitoneal
Mus musculus [23] = assay: Compound was tested for mortality in L1210 leukemia implanted BDF1 mice on day 0 after ip administration of 20 mg/kg/day on day 1 out of 5 mice; format: functional; conditions: route intraperitoneal
Mus musculus [24] = assay: as §1; format: functional; conditions: route intraperitoneal; remark: listed apart in the source
Mus musculus [25] = assay: Compound was tested for mortality in P388 leukemia implanted BDF1 mice on day 0 after ip administration of 6.25 mg/kg/day on day 1-5 out of 6 mice; format: functional; conditions: route intraperitoneal
Mus musculus [26] = assay: Compound was evaluated for %T/C in L1210 leukemia implanted BDF1 mice on day 0 after ip administration of 10 mg/kg/day on day 1-5; format: functional; conditions: route intraperitoneal
Mus musculus [27] = assay: Compound was evaluated for %T/C in L1210 leukemia implanted BDF1 mice on day 0 after ip administration of 5 mg/kg/day on day 1; format: functional; conditions: route intraperitoneal
[28] = Half-life period in 95% ethanol in dark at 28 degrees celsius.; format: ADME
Mus musculus [29] = assay: Compound was tested for mortality in P388 leukemia implanted BDF1 mice on day 0 after ip administration of 7.5 mg/kg/day on day 1-5 out of 5 mice; format: functional; conditions: route intraperitoneal
Mus musculus [30] = assay: Compound was evaluated for %T/C in P388 leukemia implanted BDF1 mice on day 0 after ip administration of 10 mg/kg/day on day 1-5; format: functional; conditions: route intraperitoneal
Mus musculus [31] = assay: Compound was evaluated for number of survivors in P388 leukemia implanted BDF1 mice on day 0 after ip administration of 12.5 mg/kg/day on day 60 out of 6 mice; format: functional; conditions: route intraperitoneal
Mus musculus [32] = assay: Compound was tested for mortality in P388 leukemia implanted BDF1 mice on day 0 after ip administration of 20 mg/kg/day on day 1 out of 5 mice; format: functional; conditions: route intraperitoneal
Mus musculus [33] = assay: Compound was evaluated for number of survivors in P388 leukemia implanted BDF1 mice on day 0 after ip administration of 20 mg/kg/day on day 60 out of 5 mice; format: functional; conditions: route intraperitoneal
Mus musculus [34] = assay: Compound was evaluated for %T/C in L1210 leukemia implanted BDF1 mice on day 0 after ip administration of 5 mg/kg/day on day 1-5; format: functional; conditions: route intraperitoneal
Mus musculus [35] = assay: Compound was evaluated for %T/C in P388 leukemia implanted BDF1 mice on day 0 after ip administration of 5 mg/kg/day on day 1; format: functional; conditions: route intraperitoneal
Mus musculus [36] = assay: Compound was tested for mortality in P388 leukemia implanted BDF1 mice on day 0 after ip administration of 10 mg/kg/day on day 1 out of 5 mice; format: functional; conditions: route intraperitoneal
Mus musculus [37] = assay: Compound was tested for mortality in P388 leukemia implanted BDF1 mice on day 0 after ip administration of 50 mg/kg/day on day 1-5 out of 6 mice; format: functional; conditions: route intraperitoneal
Mus musculus [38] = assay: Compound was evaluated for number of survivors in L1210 leukemia implanted BDF1 mice on day 0 after ip administration of 5 mg/kg/day on day 60 out of 5 mice; format: functional; conditions: route intraperitoneal
Mus musculus [39] = assay: Compound was evaluated for %T/C in L1210 leukemia implanted BDF1 mice on day 0 after ip administration of 40 mg/kg/day on day 1; format: functional; conditions: route intraperitoneal
Mus musculus [40] = assay: Compound was evaluated for number of survivors in P388 leukemia implanted BDF1 mice on day 0 after ip administration of 40 mg/kg/day on day 60 out of 5 mice; format: functional; conditions: route intraperitoneal

NC(=O)c1ncn2c(=O)n(CCCl)nnc12 [MITOZOLOMIDE]
T/C (Mus musculus [1]): 387% | Mortality (Mus musculus [2]): 0 | Mortality (Mus musculus [3]): 0 | Mortality (Mus musculus [4]): 0 | Mortality (Mus musculus [5]): 0 | Mortality (Mus musculus [6]): 0 | Mortality (Mus musculus [7]): 0 | Mortality (Mus musculus [8]): 0 | T/C (Mus musculus [9]): 177% | Survivors (Mus musculus [10]): 5 | Survivors (Mus musculus [11]): 0 | Survivors (Mus musculus [12]): 0 | Survivors (Mus musculus [13]): 6 | Survivors (Mus musculus [14]): 0 | half-life [15]: 1.17 h | Mortality (Mus musculus [16]): 0 | T/C (Mus musculus [17]): 131% | Survivors (Mus musculus [18]): 5 | T/C (Mus musculus [19]): >555% | Mortality (Mus musculus [20]): 0 | Survivors (Mus musculus [21]): 4 | Mortality (Mus musculus [22]): 0 | Mortality (Mus musculus [23]): 0 | Survivors (Mus musculus [24]): 1 | Mortality (Mus musculus [25]): 1 | T/C (Mus musculus [26]): >577% | T/C (Mus musculus [27]): 111% | half-life [28]: 1.2 h | Mortality (Mus musculus [29]): 0 | T/C (Mus musculus [30]): >555% | Survivors (Mus musculus [31]): 1 | Mortality (Mus musculus [32]): 0 | Survivors (Mus musculus [33]): 5 | T/C (Mus musculus [34]): 139% | T/C (Mus musculus [35]): 132% | Mortality (Mus musculus [36]): 0 | Mortality (Mus musculus [37]): 0 | Survivors (Mus musculus [38]): 0 | T/C (Mus musculus [39]): >740% | Survivors (Mus musculus [40]): 5
